Experiments:
[1] = system: primary mouse bone marrow-derived macrophages (BMMs); assay: Osteoclast formation from BMMs, TRAP staining; format: cell-based; conditions: sRANKL 50 ng/ml, M-CSF 40 ng/ml, 7 days, FIG. 1A
Procedure: FIGS. 1A-1D are data collected from primary mouse bone marrow-derived macrophages (BMMs) respectively incubated in the medium containing the soluble recombinant RANKL (sRANKL, 50 ng/ml), macrophage colony-stimulating factor (M-CSF, 40 ng/ml) and specified concentrations of MLN4924 for 7 days according to example 1.1 of the present disclosure. FIG. 1A: the photographs of TRAP staining depicting the differentiation of osteoclasts from BMMs. FIG. 1B: after the differentiation of osteoclasts in Corning Osteo Surface (a synthetic 3-dimensional structure that mimics in vivo bone for in vitro bone cell assays), the cells were removed, and the resorbed areas for confirming osteoclast activity were analyzed by 1% toluidine blue staining. FIG. 1C: the culture medium is subject to Biovision Cathepsin K Activity Fluorometric Assay Kit for the analysis of cathepsin K activity. FIG. 1D: the effect of effective doses of MLN4924 on the viability of BMMs is evaluated by MTT assay. Scale bar represents 100 μm. Data are expressed as mean±SD where *p<0.05; **p<0.01.
The pre-osteoclast cells were prepared by mouse bone marrow-derived macrophage (BMM). In brief, the femurs and tibias were obtained from 6-12 week old C57BL/6J female mice. […]

[2] = system: ovariectomized (OVX) mice; assay: Three-point bending test of femurs of OVX + sRANKL mice; format: in vivo, mouse; conditions: 10 mg/kg i.p. once daily for 2 weeks
Text: FIGS. 7A-7D are histograms respectively depicting the mechanical properties of femurs in control, OVX, OVX+RANKL, and OVX+RANKL+MLN4924 groups according to example 5.2 of the present disclosure, including modulus (FIG. 7A), strain at break (FIG. 7B), stress at yield (FIG. 7C), and load at break (FIG. 7D). Values are expressed as mean±SD, N=6 per group. *p<0.05; **p<0.01.
All experimental procedures were approved by the Institutional Animal Care and Use Committee of the Chang Gung Memorial Hospital at Chiayi and complied with the Guideline for the Care and Use of Laboratory Animals available through the National Academy of Sciences (IACUC number: 2013100102 and 2015103001). All efforts were made to minimize the suffering of the animals. C57BL/6J female mice (6-8 weeks old; obtained from BioLasco in Taiwan) were operated ovariectomy surgery (OVX). 48 hours later of OVX operation, sRANKL (1 mg/kg) or saline was injected intraperitoneally once daily for two days followed by intraperitoneal injection of MLN4924 (10 mg/kg) once daily for 2 weeks. Mice were sacrificed with CO2 asphyxiation, and the tibias and femurs were isolated therefrom. The tibias were subject to histochemistry assay, and the femurs were subject to bending test and tomographic analysis by MTS (Testresources, Shakopee, Minn.) and Skyscan 1272 (Bruker, Kontich, Belgium), respectively. Serum levels of cross linked C-telopeptide of type I collagen (CTX-1) (CEA665Mu) was measured by specific ELISA kit (USCN life science incorporation, Wuhan, Hubei, China).
The femurs were tested to failure by three-point bending on an MTS Synergie 200 (Testresources, Shakopee, Minn.). The speed of load application was set as 1 mm/min with preload of 1N, load cell of 500N, settling time of 30 seconds and distance between the points of 10 mm. Force-displacement data were plotted from the structural properties, including modulus, load at break, stress at yield and strain at yield.
Bone loss results in bone fragile, thus rendering bone being easier to break. In this example, mice were first treated with OVX or OVX+sRANKL to cause bone loss, and then MLN4924 was administered. The femurs of mice were then subject to shaft fracture testing by three-point bending so as to evaluate the biomechanical properties thereof.

JNK (pJNK) = assay: Western blot, sRANKL-induced JNK phosphorylation in RAW264.7 cells; format: cell-based, mouse; conditions: RAW264.7, 30 min pre-treatment, sRANKL 50 ng/ml, FIG. 3A-3B
Procedure: FIGS. 3A-3D are data collected from Western blot analysis that respectively depict the expression of specified protein extracted from the RAW264.7 cells, which are pre-treated with specified concentrations of MLN4924 for 30 minutes followed by the stimulation of sRANKL (50 ng/ml) according to example 2 of the present disclosure. FIG. 3A: the time course effect of MLN4924 on the phosphorylations of ERK (pERK), P38 (pP38) and JNK (pJNK). FIG. 3B: the dose effect of MLN4924 on the phosphorylations of ERK (pERK), P38 (pP38) and JNK (pJNK). FIG. 3C: the time course effect of MLN4924 on the expression of NFATc-1. FIG. 3D: the dose effect of MLN4924 on the expression of NFATc-1. Mock: untreated control; R: sRANKL; M: MLN4924.
The RAW264.7 cells were starved with serum-free medium for six hours and then treated with the specified treatments. At indicated time points, the cells were washed with cold phosphate-buffered saline (PBS) and lysed in RIPA buffer containing complete protease inhibitor cocktail (Roche). The cell lysates were separated by SDS-PAGE followed by Western blotting with the indicated antibodies, including NEDD8, APPBP1, UBA3.
Specifically, the inhibitory effect increased with an increase in the MLN4924 concentration (FIG. 3B).

## NS(=O)(=O)OC[C@@H]1C[C@@H](n2ccc3c(N[C@H]4CCc5ccccc54)ncnc32)C[C@@H]1O [MLN4924, (1S,2S,4R)-4-(4-((1S)-2,3-Dihydro-1H-inden-1-ylamino)-7H-pyrrolo(2,3-d)pyrimidin-7-yl)-2-hydroxycyclopentyl) methyl sulphamate]
[1]
  sRANKL-mediated osteoclast formation (TRAP staining): obviously suppressed the sRANKL-mediated osteoclast formation in a dose-dependent manner
[2]; FIG. 7A
  femur modulus: prevented the levels of these parameters from dropping
[2]; FIG. 7B
  femur strain at break: prevented the levels of these parameters from dropping
[2]; FIG. 7C
  femur stress at yield: prevented the levels of these parameters from dropping
[2]; FIG. 7D
  femur load at break: prevented the levels of these parameters from dropping
JNK (pJNK)
  sRANKL-upregulated phosphorylation of JNK (pJNK): inhibited
